# Laboratory results published in ChEMBL document CHEMBL5380853, “Lead Optimization of Androgen Receptor-HSP27 Disrupting Agents in Glioblastoma” (J Med Chem, 2023).
# The source made the active and inactive calls. The calls are words filed in the database; no cut-off is given here.
# Experiments:
# U-87 MG [1] = assay: Growth inhibition of AR-overexpressing human U87 cells measured after 48 hrs by MTT assay; type: functional, cell-based, U-87MG ATCC
# T98G [2] = assay: Growth inhibition of AR-overexpressing human T98G cells measured after 48 hrs by MTT assay; type: functional, cell-based
# T98G [3] = assay: Down regulation of androgen receptor activity in AR-overexpressing human T98G cells at 100 nM measured after 12 hrs by Western blotting analysis; type: functional, cell-based
# [4] = Apparent half life in mouse plasma at 20 mg/kg, ip measured for 24 hrs by LC-MS/MS analysis; type: ADME, organism-based; details: for t1/2: in vivo, ip, 20 mg/kg, 24 h
# T98G [5] = assay: Down regulation of androgen receptor activity in AR-overexpressing human T98G cells at 50 nM measured after 12 hrs by Western blotting analysis; type: functional, cell-based
# [6] = biological target: Heat shock protein beta-1 (Homo sapiens) (UniProt P04792); assay: Inhibition of HSP27 alpha-crystallin (unknown origin) activity assessed as DTT-induced insulin B chain aggregation at 10 uM measured upto 2 hrs by microplate reader-based HSP27 chaperone activity assay
# Sequence of Heat shock protein beta-1 (Homo sapiens) (P04792 whole entry): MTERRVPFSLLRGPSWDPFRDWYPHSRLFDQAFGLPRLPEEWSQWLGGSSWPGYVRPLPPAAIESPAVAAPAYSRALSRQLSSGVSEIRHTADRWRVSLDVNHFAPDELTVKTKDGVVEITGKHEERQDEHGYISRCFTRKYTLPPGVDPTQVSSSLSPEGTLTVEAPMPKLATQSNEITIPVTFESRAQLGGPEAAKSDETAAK
# [7] = biological target: Heat shock protein beta-1 (Homo sapiens) (UniProt P04792); assay: Inhibition of HSP27 chaperone activity in AR-overexpressing human U87 cells assessed as down regulation of androgen receptor level at 25 to 100 nM by Western blotting analysis; type: cell-based; details: dose lower […], dose upper 100.0 nM
# [8] = biological target: Heat shock protein beta-1 (Homo sapiens) (UniProt P04792); assay: Inhibition of HSP27 chaperone activity in AR-overexpressing human T98G cells assessed as down regulation of androgen receptor level at 25 to 100 nM by Western blotting analysis; type: cell-based; details: dose lower […], dose upper 100.0 nM
# [9] = biological target: Heat shock protein beta-1 (Homo sapiens) (UniProt P04792); assay: Inhibition of HSP27 chaperone activity in human T98G cells expressing AR-V7 mutant assessed as down regulation of androgen receptor level at 25 to 100 nM by Western blotting analysis; type: cell-based; details: dose lower […], dose upper 100.0 nM
# [10] = biological target: Heat shock protein beta-1 (Homo sapiens) (UniProt P04792); assay: Inhibition of HSP27 in AR-overexpressing human U87 cells assessed as androgen receptor degradation by measuring decrease in free cytoplasmic AR level at 50 nM measured after 12 hrs by immunofluorescence assay; type: cell-based
# [11] = biological target: Heat shock protein beta-1 (Homo sapiens) (UniProt P04792); assay: Inhibition of HSP27 in AR-overexpressing human T98G cells assessed as androgen receptor degradation by measuring decrease in free cytoplasmic AR level at 50 nM measured after 12 hrs by immunofluorescence assay; type: cell-based
# U-87MG ATCC = assay: Effect on nucleus AR level in AR-overexpressing human U87 cells at 50 nM measured after 12 hrs by immunofluorescence assay; type: functional, cell-based
# T98G [12] = assay: Effect on nucleus AR level in AR-overexpressing human T98G cells at 50 nM measured after 12 hrs by immunofluorescence assay; type: functional, cell-based
# U-87 MG [13] = assay: Antitumor activity against human U87 cells xenografted in mouse assessed as decrease in tumor size at 20 mg/kg, ip administered weekly 3 times for 14 days; type: functional, organism-based; details: U-87MG ATCC, time 14.0 day
# [14] = Toxicity in mouse xenografted with human U87 cells assessed as body weight at 20 mg/kg, ip administered weekly 3 times for 14 days; type: organism-based, U-87MG ATCC; details: in vivo, 336 h, time 14 day
# U-87 MG [15] = assay: In vivo antitumor activity against human U87 cells xenografted in mouse assessed as decrease in tumor weight at 20 mg/kg, ip administered weekly 3 times for 14 days relative to control; type: functional, organism-based; details: U-87MG ATCC, time 14.0 day
# U-87 MG [16] = assay: In vivo antitumor activity against human U87 cells xenografted in mouse assessed as decrease in AR protein level in tumor at 20 mg/kg, ip administered weekly 3 times for 14 days relative to control; type: functional, organism-based; details: U-87MG ATCC, time 14.0 day
# [17] = Cmax in mouse plasma at 20 mg/kg, ip measured for 24 hrs by LC-MS/MS analysis; type: ADME, organism-based; set-up: time 24 hrs, dose 20 mg/kg, route ip; details: in vivo
# [18] = AUC (0 to 24 hrs) in mouse plasma at 20 mg/kg, ip measured for 24 hrs by LC-MS/MS analysis; type: ADME, organism-based; set-up: dose 20 mg/kg, time 24 hrs, route ip; details: in vivo
# [19] = AUC (0 to infinity) in mouse plasma at 20 mg/kg, ip measured for 24 hrs by LC-MS/MS analysis; type: ADME, organism-based; set-up: time 24 hrs, dose 20 mg/kg, route ip; details: in vivo
# [20] = Apparent Half life in mouse brain at 20 mg/kg, ip measured for 24 hrs by LC-MS/MS analysis; type: ADME, organism-based; details: in vivo
# [21] = Cmax in mouse brain at 20 mg/kg, ip measured for 24 hrs by LC-MS/MS analysis; type: ADME, organism-based; set-up: dose 20 mg/kg, time 24 hrs, route ip
# [22] = AUC (0 to 24 hrs) in mouse brain at 20 mg/kg, ip measured for 24 hrs by LC-MS/MS analysis; type: ADME, organism-based; set-up: dose 20 mg/kg, time 24 hrs, route ip; details: in vivo
# [23] = AUC (0 to infinity) in mouse brain at 20 mg/kg, ip measured for 24 hrs by LC-MS/MS analysis; type: ADME, organism-based; set-up: time 24 hrs, dose 20 mg/kg, route ip; details: in vivo
# [24] = Toxicity in C57BL/6 mouse assessed as body weight change at 100 mg/kg, ip treated for 10 days; type: organism-based; details: in vivo, 240 h, time 10 day
# [25] = Toxicity in C57BL/6 mouse assessed as kidney histology by measuring necrosis/glomerular atrophy at 100 mg/kg, ip treated for 10 days by hematoxylin and eosin staining based assay; type: organism-based; details: in vivo, 240 h, time 10 day
# [26] = Toxicity in C57BL/6 mouse assessed as spleen histology by measuring intact/distinct spleen-follical at 100 mg/kg, ip treated for 10 days by hematoxylin and eosin staining based assay; type: organism-based; details: in vivo, 240 h, time 10 day
# [27] = Toxicity in C57BL/6 mouse assessed as lung histology by measuring injury/fibrosis at 100 mg/kg, ip treated for 10 days by hematoxylin and eosin staining based assay; type: organism-based; details: in vivo, 240 h, time 10 day
# [28] = Toxicity in C57BL/6 mouse assessed as liver histology at 100 mg/kg, ip treated for 10 days by hematoxylin and eosin staining based assay; type: organism-based; details: in vivo, 240 h, time 10 day
# [29] = Toxicity in C57BL/6 mouse assessed as heart histology by measuring infarcts/inflammatory cell infiltration at 100 mg/kg, ip treated for 10 days by hematoxylin and eosin staining based assay; type: organism-based; details: in vivo, 240 h, time 10 day
# [30] = Toxicity in C57BL/6 mouse assessed as physical condition at 100 mg/kg, ip treated for 10 days; type: organism-based; details: in vivo, 240 h, time 10 day
compound,measurement,setting,value
COc1ccc(OC)c(COc2cc(NC(=O)c3ccc(OC(F)(F)F)cc3)ccc2NS(C)(=O)=O)c1,IC50,U-87 MG [1],2490 nM
same,IC50,T98G [2],899 nM
same,Activity,T98G [3],Active
COc1ccc(OC)c(COc2cc(NC(=O)c3ccc([N+](=O)[O-])cc3)ccc2NS(C)(=O)=O)c1,IC50,U-87 MG [1],> 10000 nM
same,IC50,T98G [2],1190 nM
same,Activity,T98G [3],Active
COc1ccc(OC)c(COc2cc(NC(=O)c3ccc(SC)cc3)ccc2NS(C)(=O)=O)c1,IC50,U-87 MG [1],92 nM
same,IC50,T98G [2],29 nM
same,Activity,T98G [3],Active
COc1ccc(OC)c(COc2cc(NC(=O)CCCC(=O)Nc3ccc(NS(C)(=O)=O)c(OCc4cc(OC)ccc4OC)c3)ccc2NS(C)(=O)=O)c1,IC50,U-87 MG [1],> 10000 nM
same,IC50,T98G [2],> 10000 nM
same,Activity,T98G [3],Active
COc1ccc(OC)c(COc2cc(NC(=O)c3cccc(Br)c3)ccc2NS(C)(=O)=O)c1,IC50,U-87 MG [1],530 nM
same,IC50,T98G [2],2670 nM
same,Activity,T98G [3],Active
COc1ccc(OC)c(COc2cc(NC(=O)c3cccs3)ccc2NS(C)(=O)=O)c1,IC50,U-87 MG [1],> 10000 nM
same,IC50,T98G [2],3430 nM
same,Activity,T98G [3],Active
COc1ccc(C(=O)Nc2ccc(NS(C)(=O)=O)c(OCc3cc(OC)ccc3OC)c2)cc1,half-life,[4]; plasma,1.5 h
COc1ccc(OC)c(COc2cc(NC(=O)c3ccccc3C)ccc2NS(C)(=O)=O)c1,IC50,U-87 MG [1],1190 nM
same,IC50,T98G [2],306 nM
same,Activity,T98G [3],Active
COc1ccc(OC)c(COc2cc(NC(=O)c3ccno3)ccc2NS(C)(=O)=O)c1,IC50,U-87 MG [1],> 10000 nM
same,IC50,T98G [2],3960 nM
same,Activity,T98G [3],Active
COc1ccc(OC)c(COc2cc(NC(=O)c3ccc4c(c3)OCO4)ccc2NS(C)(=O)=O)c1,Activity,T98G [3],Active
same,Activity,T98G [5],Active
same,inhibition,[6],Active
same,inhibition,[7],Active
same,inhibition,[8],Active
same,inhibition,[9],Active
same,inhibition,[10],Active
same,inhibition,[11],Active
same,Activity,U-87MG ATCC,inactive
same,Activity,T98G [12],inactive
same,Activity,U-87 MG [13],Active
same,Activity,[14],Non-Toxic
same,Activity,U-87 MG [15],Active
same,Activity,U-87 MG [16],Active
same,t1/2,[4],1.49 h
same,Cmax,[17],20200 ng/mL
same,AUC,[18],20020 ng·h/mL
same,AUC,[19],32130 ng·h/mL
same,t1/2,[20],0.57 h
same,Cmax,"[21]; brain, read-out: Cmax",680 ng/g
same,AUC,[22],0.31 µg·h/g
same,AUC,[23],0.62 µg·h/g
same,Activity,[24],Non-Toxic
same,Activity,[25],Non-Toxic
same,Activity,[26],Non-Toxic
same,Activity,[27],Non-Toxic
same,Activity,[28],Non-Toxic
same,Activity,[29],Non-Toxic
same,Activity,[30],Non-Toxic
CCCCCC(=O)Nc1ccc(NS(C)(=O)=O)c(OCc2cc(OC)ccc2OC)c1,IC50,U-87 MG [1],2040 nM
same,IC50,T98G [2],1190 nM
COc1cccc(C(=O)Nc2ccc(NS(C)(=O)=O)c(OCc3cc(OC)ccc3OC)c2)c1,IC50,U-87 MG [1],8310 nM
same,IC50,T98G [2],220 nM
COc1ccc(OC)c(COc2cc(NC(=O)c3ccc(C#N)cc3)ccc2NS(C)(=O)=O)c1,IC50,U-87 MG [1],2880 nM
same,IC50,T98G [2],790 nM
COc1ccc(OC)c(COc2cc(NC(=O)OCCOCCOCCOC(=O)Nc3ccc(NS(C)(=O)=O)c(OCc4cc(OC)ccc4OC)c3)ccc2NS(C)(=O)=O)c1,IC50,U-87 MG [1],> 10000 nM
same,IC50,T98G [2],5470 nM
COc1ccc(OC)c(COc2cc(NC(=O)c3cccc(Cl)c3)ccc2NS(C)(=O)=O)c1,IC50,U-87 MG [1],> 10000 nM
same,IC50,T98G [2],65 nM
COc1ccc(OC)c(COc2cc(NC(=O)c3ccc(I)cc3)ccc2NS(C)(=O)=O)c1,IC50,U-87 MG [1],46 nM
same,IC50,T98G [2],48 nM
COc1ccc(OC)c(COc2cc(NC(=O)OCCOC(=O)Nc3ccc(NS(C)(=O)=O)c(OCc4cc(OC)ccc4OC)c3)ccc2NS(C)(=O)=O)c1,IC50,U-87 MG [1],5230 nM
same,IC50,T98G [2],2280 nM
COc1ccc(OC)c(COc2cc(NC(=O)c3cc(C(F)(F)F)cc(C(F)(F)F)c3)ccc2NS(C)(=O)=O)c1,IC50,U-87 MG [1],2650 nM
same,IC50,T98G [2],1040 nM
COc1ccc(OC)c(COc2cc(NC(=O)c3ccc4ccccc4c3)ccc2NS(C)(=O)=O)c1,Activity,T98G [3],Active
same,Activity,T98G [5],Active
same,inhibition,[6],Active
same,inhibition,[7],Active
same,inhibition,[8],Active
same,inhibition,[9],Active
same,inhibition,[10],Active
same,inhibition,[11],Active
same,Activity,U-87MG ATCC,inactive
same,Activity,T98G [12],inactive
same,Activity,U-87 MG [13],Active
same,Activity,[14],Non-Toxic
same,Activity,U-87 MG [15],Active
same,Activity,U-87 MG [16],Active
same,t1/2,[4],6.28 h
same,Cmax,[17],30620 ng/mL
same,AUC,[18],61920 ng·h/mL
same,AUC,[19],80840 ng·h/mL
same,t1/2,[20],8.66 h
same,Cmax,"[21]; in vivo, 24 h",760 ng/g
same,AUC,[22],1.34 µg·h/g
same,AUC,[23],2.44 µg·h/g
same,Activity,[24],Non-Toxic
same,Activity,[25],Non-Toxic
same,Activity,[26],Non-Toxic
same,Activity,[27],Non-Toxic
same,Activity,[28],Non-Toxic
same,Activity,[29],Non-Toxic
same,Activity,[30],Non-Toxic
COc1ccc(OC)c(COc2cc(NC(=O)c3ccc(C)c([N+](=O)[O-])c3)ccc2NS(C)(=O)=O)c1,IC50,U-87 MG [1],2630 nM
same,IC50,T98G [2],3690 nM
